# Measurements as given in paper PMC12481576, “Barbituric Acid Derivatives as Covalent Inhibitors of Leishmania braziliensis Dihydroorotate Dehydrogenase” (Journal of Medicinal Chemistry, 2025).
# Where “and” joins values, the source holds several entries; their conditions need not be identical. Equal entries are not always repeated. Where two headings read alike, the source gives them in different places.
# Legend:
# HsDHODH = biological target: T1, HsDHODH (Homo sapiens, UniProt Q02127); experiment: Selectivity assay: HsDHODH single-dose inhibition (DCIP reduction); type: biochemical
# T1 construct: made in house
# T1 sequence (Q02127 whole entry): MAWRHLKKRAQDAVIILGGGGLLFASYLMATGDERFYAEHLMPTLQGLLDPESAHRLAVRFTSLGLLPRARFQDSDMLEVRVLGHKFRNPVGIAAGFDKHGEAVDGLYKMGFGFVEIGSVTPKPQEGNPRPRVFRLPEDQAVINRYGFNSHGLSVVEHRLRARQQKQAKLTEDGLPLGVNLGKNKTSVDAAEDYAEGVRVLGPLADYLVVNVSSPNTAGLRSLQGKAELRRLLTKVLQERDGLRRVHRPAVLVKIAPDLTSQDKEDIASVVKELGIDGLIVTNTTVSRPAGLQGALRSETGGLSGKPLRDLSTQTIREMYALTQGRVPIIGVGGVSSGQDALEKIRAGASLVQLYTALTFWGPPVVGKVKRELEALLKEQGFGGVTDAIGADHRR
# Procedure: […]. This finding highlights the potential of barbituric acid derivatives as selective inhibitors of LbDHODH.
# Human DHODH expression and purification were conducted following a protocol previously established in our laboratory. The purification was carried out by affinity chromatography on a Ni-NTA Agarose column (Qiagen[…] Cat. No. 30210). […] The reaction was performed in triplicate, initiated by adding 195 μL of reaction buffer to 5 μL of HsDHODH protein solution for a final concentration of 20 nM enzyme. As a blank, 195 μL of reaction buffer was added to 5 μL of Buffer A. The reaction was monitored at 610 nm every 3 s over 60 s. As a control, 5 μL of enzyme was added to 195 μL of reaction medium without compound. Enzymatic velocity was calculated, and the percentage of relative enzymatic activity was determined relative to the control.
# [1] = test system: Leishmania braziliensis promastigotes; experiment: Leishmanicidal activity, promastigote growth (SYBR Green, 72 h); type: cell-based, Leishmania (V.) braziliensis (MHOM/BR/1975/M2904); details: Leishmania braziliensis, L. braziliensis promastigotes, max 200 μM
# Procedure: The cultures were adjusted to 4 × 10^6 parasites per mL, and 50 μL of each culture was added on a test plate with 384 wells (Corning, #CLS3658), along with the controls and compounds to be tested. Previously diluted compounds in DMSO were added to plates in decreasing concentrations, with a maximum concentration of 200 μM. Parasites were exposed to a final concentration of DMSO in various dilutes (final = 0.5%), and the culture medium was used as the control for the experiment. […] After adding the lysis buffer, the plates were incubated in the dark for 2 h with gentle shaking. The readings were done using a SpectraMax M3 reader (excitation at 485 nm and emission at 535 nm).
# LbDHODH = LbDHODH (Leishmania braziliensis, UniProt E9AI53); experiment: biochemical; details: for IC50: LbDHODH
# Chain of LbDHODH (E9AI53 entry or part of it): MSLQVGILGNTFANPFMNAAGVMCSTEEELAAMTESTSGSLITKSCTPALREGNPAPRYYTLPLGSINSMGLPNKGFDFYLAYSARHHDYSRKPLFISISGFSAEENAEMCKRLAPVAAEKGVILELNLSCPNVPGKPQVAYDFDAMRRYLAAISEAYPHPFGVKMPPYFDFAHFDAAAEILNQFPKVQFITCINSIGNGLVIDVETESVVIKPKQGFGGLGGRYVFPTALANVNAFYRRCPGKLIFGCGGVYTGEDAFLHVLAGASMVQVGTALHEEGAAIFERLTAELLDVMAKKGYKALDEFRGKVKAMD
# Procedure: To assess the ability of compounds 2a–2i to inhibit LbDHODH via covalent bond formation with Cys^131, we initially screened them at a concentration of 100 μM under two conditions: with and without a 4-h preincubation with the enzyme.
# The experiments were performed in a 96-well microplate reader (SpectraMax Plus 384, Molecular Devices, USA), containing the […] of the buffer 60 mM DCIP, 50 mM Tris pH 8.15, 150 mM KCl, 0.1% Triton X-100, 50 μM DHO and 10 μM of LbDHODH at 165 nM. The reaction was monitored every 3 s at 610 nm over a period of 60 s, in triplicate, for the control and each concentration of the inhibitor. All assays were performed without incubation (0h) and with 4-h preincubation of the inhibitor with LbDHODH, using 5% DMSO (v/v) as control. […]. […] The resulting kobs values were plotted as a function of inhibitor concentration, and the data in the initial linear region was fit to determine the slope, which is kinact/KI. All regressions were performed with GraphPad Prism 9.
# THP-1 cells = experiment: Cell viability / cytotoxicity assay (PrestoBlue, 72 h); type: cell-based; details: THP-1 cell line, 72 h, max 200 μM
# Procedure: (§1) THP-1 cells (American Type Cell Collection, #TIB-202) were acquired in 2019 and stored frozen in liquid nitrogen. The cells were then maintained in RPMI 1640 (Thermo Fisher Scientific, #S31800–022) at 37 °C in a 5% CO2 atmosphere and routinely tested for Mycoplasma contamination by PCR using the primers 5′-[…] and 5′-[…]. To test the toxicity of compounds, 5000 cells were added to 96-well plates with a final volume of 80 μL centrifuged at 400g for 2 min and incubated with 150 ng/mL of phorbol myristate acetate (Merck, #P8139) for 48 h. The medium was replaced, and after 24 h, the compounds were added and tested at decreasing concentrations starting from 200 μM (10 μL/well). After 72 h of incubation, 10 μL of PrestoBlue Cell Viability Reagent (Thermo Fisher Scientific, #A13262) was added per well. After adding the reagent, the cells were incubated for 2 h at 37 °C in a 5% CO2 atmosphere, and fluorescence readings were performed using the SpectraMax M3 reader (excitation at 560 nm and emission at 590 nm).
# [2] = as above; type: cell-based; details: human; THP-1 cell line, 72 h, max 200 μM; read-out: CC50
# Procedure: as §1
# [3] = Kinetic solubility assay in PBS pH 7.4; type: physicochemical; details: PBS pH 7.4, 200 μM test conc, 1% DMSO, 2 h at 25 °C
# Procedure: The plate was incubated for 2 h at 25 °C. The precipitates on the incubation plate were removed by filtration and the filtrates were quantified by LC-MS/MS. Calibration curves were prepared for each compound by using 5–6 points. Samples were analyzed by UV–vis.
# [4] = Mouse liver microsome stability in the absence of cofactors (NCF); details: mouse liver microsomes, 60 min, no cofactor (NCF), raw LC-MS area
# in vitro [5] = details: mouse, microsomes, pH 7.4, % Remaining, T=60 NCF
# [6] = for Raw data: analyte peak area, T=0: 0 min; for Raw data: analyte peak area, T=0 / Raw data: analyte peak area, T=5 / Raw data: analyte peak area, T=10 / Raw data: analyte peak area, T=20 / Raw data: analyte peak area, T=30 / Raw data: analyte peak area, T=60: raw LC-MS area; for Raw data: analyte peak area, T=5: 5 min; for Raw data: analyte peak area, T=10: 10 min; for Raw data: analyte peak area, T=20: 20 min; for Raw data: analyte peak area, T=30: 30 min; for Raw data: analyte peak area, T=60: 60 min
# in vitro [7] = details: liver microsomes; for microsomal CLint at 1 μM / remaining at 5 min, 1 μM: male, CD1, mouse; for remaining at 5 min, 1 μM / remaining at 10 min, 1 µM / remaining at 20 min, 1 µM / remaining at 0.5 h, 1 µM / remaining at 1 h, 1 µM: pH 7.4, % Remaining; for remaining at 5 min, 1 μM: T=5 min; for remaining at 10 min, 1 µM / remaining at 20 min, 1 µM / remaining at 0.5 h, 1 µM / remaining at 1 h, 1 µM: mouse; for remaining at 10 min, 1 µM: T=10 min; for remaining at 20 min, 1 µM: T=20 min; for remaining at 0.5 h, 1 µM: T=30 min, 30 min; for remaining at 1 h, 1 µM: T=60 min, 60 min
# [8] = read-out: Single dose (0h) % activity
# [9] = read-out: Single dose (4h) % activity
# [10] = 0 h, pH 8.15, read-out: LbDHODH Activity±SD (%)
# [11] = 4 h, pH 8.15, read-out: LbDHODH Activity±SD (%)
# [12] = phosphate buffered saline, aqueous buffer, kinetic from dmso stock
# [13] = mouse liver microsomes, replicate 1 (left block)
# [14] = mouse liver microsomes, replicate 2 (right block)
# [15] = n=1, mouse liver microsomes, 1 µM, n=1
# [16] = n=2, mouse liver microsomes, 1 µM, n=2
smiles,measurement,setting,value
"O=C1NC(=O)C(=Cc2ccc(-c3ccccc3)cc2)C(=O)N1 [2f, 5-([1,1′-Biphenyl]-4-ylmethylene)pyrimidine-2,4,6(1H,3H,5H)-trione]",activity at 100 µM,HsDHODH; [8],103 ± 12%
same,activity at 100 µM,HsDHODH; [9],78 ± 8%
same,EC50,[1],19 ± 14 µM
same,activity at 0.024414 µM,LbDHODH; [10],97 ± 2%
same,activity at 0.048828 µM,LbDHODH; [10],93 ± 2%
same,activity at 0.0976562 µM,LbDHODH; [10],98 ± 2%
same,activity at 0.195312 µM,LbDHODH; [10],97 ± 2%
same,activity at 0.390625 µM,LbDHODH; [10],91 ± 2%
same,activity at 0.78125 µM,LbDHODH; [10],94 ± 2%
same,activity at 1.5625 µM,LbDHODH; [10],100 ± 2%
same,activity at 3.125 µM,LbDHODH; [10],94 ± 2%
same,activity at 6.25 µM,LbDHODH; [10],96 ± 2%
same,activity at 12.5 µM,LbDHODH; [10],86 ± 2%
same,activity at 25 µM,LbDHODH; [10],83 ± 2%
same,activity at 50 µM,LbDHODH; [10],71 ± 2%
same,activity at 100 µM,LbDHODH; [10],62 ± 2%
same,activity at 200 µM,LbDHODH; [10],43 ± 1%
same,activity at 0.024414 µM,LbDHODH; [11],103 ± 3%
same,activity at 0.048828 µM,LbDHODH; [11],104 ± 3%
same,activity at 0.0976562 µM,LbDHODH; [11],104 ± 3%
same,activity at 0.195312 µM,LbDHODH; [11],95.5 ± 2%
same,activity at 0.390625 µM,LbDHODH; [11],95.9 ± 2%
same,activity at 0.78125 µM,LbDHODH; [11],85.6 ± 2%
same,activity at 1.5625 µM,LbDHODH; [11],83.3 ± 2%
same,activity at 3.125 µM,LbDHODH; [11],73.6 ± 2%
same,activity at 6.25 µM,LbDHODH; [11],53 ± 1%
same,activity at 12.5 µM,LbDHODH; [11],41 ± 1%
same,activity at 25 µM,LbDHODH; [11],25.2 ± 0.6%
same,activity at 50 µM,LbDHODH; [11],10 ± 0.2%
same,activity at 100 µM,LbDHODH; [11],3.8 ± 0.1%
same,activity at 200 µM,LbDHODH; [11],0.95 ± 0.02%
same,IC50,"LbDHODH; IC50 0 h, without preincubation",160 ± 10 µM
same,IC50,"LbDHODH; IC50 4 h, 4-h preincubation",7.7 ± 0.3 µM
same,activity at 100 µM,LbDHODH; [8],62 ± 2%
same,activity at 100 µM,LbDHODH; [9],3.8 ± 0.1%
same,inhibition at 100 µM,LbDHODH; read-out: enzyme inhibition,96.2%
same,CC50,THP-1 cells,strong cytotoxicity
same,CC50 at 72 h,[2],12 ± 3 µM
"O=C(O)Cc1ccccc1Nc1c(Cl)cccc1Cl [Diclofenac Sodium, reference compound]",solubility kinetic at 2 h,[3]; [12],200 µM
O=C(O)Cc1ccccc1Nc1c(Cl)cccc1Cl [Diclofenac],"Raw data: analyte peak area, T=60 NCF",[4]; replicate 1 (left block),17862
same,"Raw data: analyte peak area, T=60 NCF",[4]; replicate 2 (right block),19654
same,"remaining at 1 h, 1 µM",in vitro [5]; n=1,98.3%
same,"remaining at 1 h, 1 µM",in vitro [5]; n=2,88.5%
same,"Calculated T-half (min), Average","[6]; mouse liver microsomes (CD1 male), 0.4 mg/ml protein, test conc 1 µM, average of n=1 and n=2",59.3 min
same,"Calculated T-half (min), n=1","[6]; mouse liver microsomes (CD1 male), 0.4 mg/ml protein, test conc 1 µM, replicate n=1",62.0 min and 61.99 min
same,"Calculated T-half (min), n=2","[6]; mouse liver microsomes (CD1 male), 0.4 mg/ml protein, test conc 1 µM, replicate n=2",56.6 min and 56.57 min
same,"Raw data: analyte peak area, T=0",[6]; [13],17523
same,"Raw data: analyte peak area, T=0",[6]; [14],19401
same,"Calculated CLint, app (µl/min/mg), n=1","[6]; mouse liver microsomes, 0.4 mg/ml protein, 1 µM, replicate n=1",27.95 µL/min/mg
same,"Calculated CLint, app (µl/min/mg), n=2","[6]; mouse liver microsomes, 0.4 mg/ml protein, 1 µM, replicate n=2",30.63 µL/min/mg
same,"Modified T-half (min), Average","[6]; mouse liver microsomes, 0.4 mg/ml, 1 µM, average, limited to T Half range 3.00 - […]",59.3 min
same,"Raw data: analyte peak area, T=5",[6]; [13],17080
same,"Raw data: analyte peak area, T=5",[6]; [14],16757
same,"Raw data: analyte peak area, T=10",[6]; [13],15901
same,"Raw data: analyte peak area, T=10",[6]; [14],17016
same,"Raw data: analyte peak area, T=20",[6]; [13],13027
same,"Raw data: analyte peak area, T=20",[6]; [14],13336
same,"Raw data: analyte peak area, T=30",[6]; [13],11583
same,"Raw data: analyte peak area, T=30",[6]; [14],11936
same,"Raw data: analyte peak area, T=60",[6]; [13],10413
same,"Raw data: analyte peak area, T=60",[6]; [14],8808
same,microsomal CLint at 1 μM,in vitro [7]; pH 7.4,27.9 µL/min/mg
same,"remaining at 5 min, 1 μM",in vitro [7]; [15],94%
same,"remaining at 5 min, 1 μM",in vitro [7]; [16],89.2%
same,microsomal CLint at 1 μM,"in vitro [7]; pH 7.4, Calculated CLint, app (µl/min/mg), Average, mouse liver microsomes, 0.4 mg/ml protein, 1 µM",29.3 µL/min/mg
same,microsomal CLint at 1 μM,"in vitro [7]; pH 7.4, Calculated CLint, app (µl/min/mg), n=1, mouse liver microsomes, 0.4 mg/ml protein, 1 µM, replicate n=1",27.9 µL/min/mg
same,microsomal CLint at 1 μM,"in vitro [7]; pH 7.4, Calculated CLint, app (µl/min/mg), n=2, mouse liver microsomes, 0.4 mg/ml protein, 1 µM, replicate n=2",30.6 µL/min/mg
same,"remaining at 10 min, 1 µM",in vitro [7]; [15],86.6%
same,"remaining at 10 min, 1 µM",in vitro [7]; [16],87%
same,"remaining at 20 min, 1 µM",in vitro [7]; [15],79.5%
same,"remaining at 20 min, 1 µM",in vitro [7]; [16],79%
same,"remaining at 0.5 h, 1 µM",in vitro [7]; [15],62%
same,"remaining at 0.5 h, 1 µM",in vitro [7]; [16],63%
same,"remaining at 1 h, 1 µM",in vitro [7]; [15],52.3%
same,"remaining at 1 h, 1 µM",in vitro [7]; [16],47.8%
"CC/C(=C(/CC)c1ccc(O)cc1)c1ccc(O)cc1 [Diethylstilbesterol, reference compound]",solubility kinetic at 2 h,[3],9.98 µM
"O=C(CCCN1CCC(O)(c2ccc(Cl)cc2)CC1)c1ccc(F)cc1 [Haloperidol, reference compound]",solubility kinetic at 2 h,[3]; [12],30.3 µM
